From the NIST ThermoML archive (doi:10.1021/je030156p)
Numbers after ± are expanded uncertainties.

Details: Liquid, Ebulliometric method (Recirculating still)

Structure (SMILES) | vapor or sublimation pressure (268.15 K) | vapor or sublimation pressure (273.15 K) | vapor or sublimation pressure (283.15 K) | vapor or sublimation pressure (293.15 K) | vapor or sublimation pressure (303.15 K) | vapor or sublimation pressure (313.15 K)
FC(F)C(F)(F)F [pentafluoroethane] | 573.7 ± 2 kPa | 671.4 ± 2.1 kPa | 907.6 ± 2.1 kPa | 1202.8 ± 2.1 kPa | 1566 ± 2.2 kPa | 2004.9 ± 2.2 kPa
CCC [propane] | 407.9 ± 2 kPa | 476.9 ± 2 kPa | 637.2 ± 2.1 kPa | 839.2 ± 2.1 kPa | 1074.6 ± 2.1 kPa | 1364.3 ± 2.2 kPa
